How the values were obtained:
[1] = Characterization of the CyNAMLA library (absorbance maximum wavelengths); format: physicochemical; details: absorbance maximum wavelength of CyNAMLA library compounds
Description: The amine group of 21 was protected using di-tert-butyl dicarbonate then derivatized with 80 different primary amines (for structures, see FIGS. 14A-14D). After acetylation of the newly-introduced amine, the compounds were treated with a solution of TFA-DCM (1:9) to remove the tert-butylcarbamate protecting group. The deprotected amine was then coupled to lipoic acid to yield CyNAMLA derivatives with an average purity of 90% (for HPLC-determined purities, see Table 6).

[2] = Primary screen of SERS intensities of CyNAMLA-functionalized AuNPs (compact Raman scanner); format: physicochemical; details: for Raman intensity: SERS spectra of CyNAMLA-functionalized AuNPs, excitation at 785 nm, laser power 60 mW
Description: FIG. 15 is a graph of the comparative surface-enhanced Raman spectroscopy (SERS) intensities of members of the CyNAMLA library measured with an excitation wavelength of 785 nm and a laser power of 60 mW in a compact Raman scanner.
The CyNAMLA compounds were adsorbed onto AuNPs having a diameter of approximately 60 nm, and the SERS properties of the resulting CyNAMLA-functionalized AuNPs were evaluated using a compact Raman scanner. Among metal nanoparticles, AuNPs are particularly suitable for in vivo applications due to their low toxicity, adaptability to bioconjugation, and reproducible signal intensity and quantification.

λabs (max) [1] [nm] | Raman intensity [2] | SERS intensity compared to DTTC, primary screen ([2]; on AuNPs, 785 nm, 60 mW) | Compound
805 | 2397 |  | CCCN1/C(=C/C=C2\CCCC(/C=C/C3=[N+](CCCNC(=O)CCCCC4CCSS4)c4ccccc4C3(C)C)=C2N(C(C)=O)C2CCN(Cc3ccccc3)CC2)C(C)(C)c2ccccc21.O=C([O-])C(F)(F)F (stereo not shown) [CyNAMLA-107]
804 | 4341 |  | CCCCC(CC)CN(C(C)=O)C1=C(/C=C/C2=[N+](CCCNC(=O)CCCCC3CCSS3)c3ccccc3C2(C)C)CCC/C1=C\C=C1\N(CCC)c2ccccc2C1(C)C.O=C([O-])C(F)(F)F (stereo not shown) [CyNAMLA-230]
804 | 8236 |  | CCCN1/C(=C/C=C2\CCCC(/C=C/C3=[N+](CCCNC(=O)CCCCC4CCSS4)c4ccccc4C3(C)C)=C2N(C(C)=O)C2CCCC2)C(C)(C)c2ccccc21.O=C([O-])C(F)(F)F (stereo not shown) [CyNAMLA-180]
804 | 3910 |  | CCCN1/C(=C/C=C2\CCCC(/C=C/C3=[N+](CCCNC(=O)CCCCC4CCSS4)c4ccccc4C3(C)C)=C2N(Cc2cccc(OC)c2)C(C)=O)C(C)(C)c2ccccc21.O=C([O-])C(F)(F)F (stereo not shown) [CyNAMLA-387]
803 | 2102 |  | CCCN1/C(=C/C=C2\CCCC(/C=C/C3=[N+](CCCNC(=O)CCCCC4CCSS4)c4ccccc4C3(C)C)=C2N(Cc2ccccc2C)C(C)=O)C(C)(C)c2ccccc21.O=C([O-])C(F)(F)F (stereo not shown) [CyNAMLA-101]
805 | 2629 |  | CCCN1/C(=C/C=C2\CCCC(/C=C/C3=[N+](CCCNC(=O)CCCCC4CCSS4)c4ccccc4C3(C)C)=C2N(Cc2cccc(C)c2)C(C)=O)C(C)(C)c2ccccc21.O=C([O-])C(F)(F)F (stereo not shown) [CyNAMLA-398]
803 | 4777 |  | CCCN1/C(=C/C=C2\CCCC(/C=C/C3=[N+](CCCNC(=O)CCCCC4CCSS4)c4ccccc4C3(C)C)=C2N(C(C)=O)C2CCCCC2)C(C)(C)c2ccccc21.O=C([O-])C(F)(F)F (stereo not shown) [CyNAMLA-164]
805 | 14019 |  | CCCN1/C(=C/C=C2\CCCC(/C=C/C3=[N+](CCCNC(=O)CCCCC4CCSS4)c4ccccc4C3(C)C)=C2N(Cc2ccc(Cl)c(Cl)c2)C(C)=O)C(C)(C)c2ccccc21.O=C([O-])C(F)(F)F (stereo not shown) [CyNAMLA-565]
806 | 3013 |  | CCCN1/C(=C/C=C2\CCCC(/C=C/C3=[N+](CCCNC(=O)CCCCC4CCSS4)c4ccccc4C3(C)C)=C2N(CCc2ccc(OC)c(OC)c2)C(C)=O)C(C)(C)c2ccccc21.O=C([O-])C(F)(F)F (stereo not shown) [CyNAMLA-266]
806 | 2271 |  | CCCN1/C(=C/C=C2\CCCC(/C=C/C3=[N+](CCCNC(=O)CCCCC4CCSS4)c4ccccc4C3(C)C)=C2N(Cc2ccc3c(c2)OCO3)C(C)=O)C(C)(C)c2ccccc21.O=C([O-])C(F)(F)F (stereo not shown) [CyNAMLA-49]
804 | 1408 |  | CCCN1/C(=C/C=C2\CCCC(/C=C/C3=[N+](CCCNC(=O)CCCCC4CCSS4)c4ccccc4C3(C)C)=C2N(C(C)=O)C(C)CCc2ccccc2)C(C)(C)c2ccccc21.O=C([O-])C(F)(F)F (stereo not shown) [CyNAMLA-275]
805 | 27810 | exceeded the signal of DTTC | CCCN1/C(=C/C=C2\CCCC(/C=C/C3=[N+](CCCNC(=O)CCCCC4CCSS4)c4ccccc4C3(C)C)=C2N(Cc2cc(OC)cc(OC)c2)C(C)=O)C(C)(C)c2ccccc21.O=C([O-])C(F)(F)F (stereo not shown) [CyNAMLA-262]
806 | 2333 |  | CCCN1/C(=C/C=C2\CCCC(/C=C/C3=[N+](CCCNC(=O)CCCCC4CCSS4)c4ccccc4C3(C)C)=C2N(Cc2cc(OC)c(OC)c(OC)c2)C(C)=O)C(C)(C)c2ccccc21.O=C([O-])C(F)(F)F (stereo not shown) [CyNAMLA-356]
804 | 1071 |  | CCCN1/C(=C/C=C2\CCCC(/C=C/C3=[N+](CCCNC(=O)CCCCC4CCSS4)c4ccccc4C3(C)C)=C2N(Cc2cccc(Br)c2)C(C)=O)C(C)(C)c2ccccc21.O=C([O-])C(F)(F)F (stereo not shown) [CyNAMLA-341]
804 | 18833 |  | CCCN1/C(=C/C=C2\CCCC(/C=C/C3=[N+](CCCNC(=O)CCCCC4CCSS4)c4ccccc4C3(C)C)=C2N(CCCN2CCCC2)C(C)=O)C(C)(C)c2ccccc21.O=C([O-])C(F)(F)F (stereo not shown) [CyNAMLA-611]
804 | 11616 |  | CCCN1/C(=C/C=C2\CCCC(/C=C/C3=[N+](CCCNC(=O)CCCCC4CCSS4)c4ccccc4C3(C)C)=C2N(CCc2ccccc2-c2ccccc2)C(C)=O)C(C)(C)c2ccccc21.O=C([O-])C(F)(F)F (stereo not shown) [CyNAMLA-599]
805 | 2455 |  | CCCN1/C(=C/C=C2\CCCC(/C=C/C3=[N+](CCCNC(=O)CCCCC4CCSS4)c4ccccc4C3(C)C)=C2N(CCc2ccc(Cl)cc2)C(C)=O)C(C)(C)c2ccccc21.O=C([O-])C(F)(F)F (stereo not shown) [CyNAMLA-677]

λabs (max) [1] [nm] | Raman intensity [2] | SERS intensity compared to DTTC, primary screen ([2]; on AuNPs, 785 nm, 60 mW) | Compound
804 | 2109 |  | CCCN1/C(=C/C=C2\CCCC(/C=C/C3=[N+](CCCNC(=O)CCCCC4CCSS4)c4ccccc4C3(C)C)=C2N(Cc2ccc(OC)cc2OC)C(C)=O)C(C)(C)c2ccccc21.O=C([O-])C(F)(F)F (stereo not shown) [CyNAMLA-181]
805 | 1986 |  | CCCN1/C(=C/C=C2\CCCC(/C=C/C3=[N+](CCCNC(=O)CCCCC4CCSS4)c4ccccc4C3(C)C)=C2N(CCN2CCCCC2)C(C)=O)C(C)(C)c2ccccc21.O=C([O-])C(F)(F)F (stereo not shown) [CyNAMLA-272]
805 | 2850 |  | CCCN1/C(=C/C=C2\CCCC(/C=C/C3=[N+](CCCNC(=O)CCCCC4CCSS4)c4ccccc4C3(C)C)=C2N(Cc2ccc(OC)c(OC)c2)C(C)=O)C(C)(C)c2ccccc21.O=C([O-])C(F)(F)F (stereo not shown) [CyNAMLA-319]
806 | 3000 |  | CCCCCCCCCCN(C(C)=O)C1=C(/C=C/C2=[N+](CCCNC(=O)CCCCC3CCSS3)c3ccccc3C2(C)C)CCC/C1=C\C=C1\N(CCC)c2ccccc2C1(C)C.O=C([O-])C(F)(F)F (stereo not shown) [CyNAMLA-407]
805 | 1876 |  | CCCN1/C(=C/C=C2\CCCC(/C=C/C3=[N+](CCCNC(=O)CCCCC4CCSS4)c4ccccc4C3(C)C)=C2N(CCc2ccc(OC)cc2)C(C)=O)C(C)(C)c2ccccc21.O=C([O-])C(F)(F)F (stereo not shown) [CyNAMLA-395]
803 | 24133 |  | CCCN1/C(=C/C=C2\CCCC(/C=C/C3=[N+](CCCNC(=O)CCCCC4CCSS4)c4ccccc4C3(C)C)=C2N(CCc2cccc(OC)c2OC)C(C)=O)C(C)(C)c2ccccc21.O=C([O-])C(F)(F)F (stereo not shown) [CyNAMLA-184]
805 | 2548 |  | CCCN1/C(=C/C=C2\CCCC(/C=C/C3=[N+](CCCNC(=O)CCCCC4CCSS4)c4ccccc4C3(C)C)=C2N(Cc2c(OC)cc(OC)cc2OC)C(C)=O)C(C)(C)c2ccccc21.O=C([O-])C(F)(F)F (stereo not shown) [CyNAMLA-336]
805 | 1125 |  | CCCCCCCCCCCCCN(C(C)=O)C1=C(/C=C/C2=[N+](CCCNC(=O)CCCCC3CCSS3)c3ccccc3C2(C)C)CCC/C1=C\C=C1\N(CCC)c2ccccc2C1(C)C.O=C([O-])C(F)(F)F (stereo not shown) [CyNAMLA-55]
805 | 5272 |  | CCCN1/C(=C/C=C2\CCCC(/C=C/C3=[N+](CCCNC(=O)CCCCC4CCSS4)c4ccccc4C3(C)C)=C2N(Cc2ccc(Cl)cc2Cl)C(C)=O)C(C)(C)c2ccccc21.O=C([O-])C(F)(F)F (stereo not shown) [CyNAMLA-531]
804 | 2487 |  | CCCCN(C(C)=O)C1=C(/C=C/C2=[N+](CCCNC(=O)CCCCC3CCSS3)c3ccccc3C2(C)C)CCC/C1=C\C=C1\N(CCC)c2ccccc2C1(C)C.O=C([O-])C(F)(F)F (stereo not shown) [CyNAMLA-373]
805 | 1735 |  | CCCN1/C(=C/C=C2\CCCC(/C=C/C3=[N+](CCCNC(=O)CCCCC4CCSS4)c4ccccc4C3(C)C)=C2N(CCCN(C)C)C(C)=O)C(C)(C)c2ccccc21.O=C([O-])C(F)(F)F (stereo not shown) [CyNAMLA-427]
804 | 1763 |  | CCCN1/C(=C/C=C2\CCCC(/C=C/C3=[N+](CCCNC(=O)CCCCC4CCSS4)c4ccccc4C3(C)C)=C2N(CC(C)CC)C(C)=O)C(C)(C)c2ccccc21.O=C([O-])C(F)(F)F (stereo not shown) [CyNAMLA-574]
805 | 4603 |  | CCCC(C)N(C(C)=O)C1=C(/C=C/C2=[N+](CCCNC(=O)CCCCC3CCSS3)c3ccccc3C2(C)C)CCC/C1=C\C=C1\N(CCC)c2ccccc2C1(C)C.O=C([O-])C(F)(F)F (stereo not shown) [CyNAMLA-185]
805 | 12149 |  | CCCN1/C(=C/C=C2\CCCC(/C=C/C3=[N+](CCCNC(=O)CCCCC4CCSS4)c4ccccc4C3(C)C)=C2N(CCc2cccc(F)c2)C(C)=O)C(C)(C)c2ccccc21.O=C([O-])C(F)(F)F (stereo not shown) [CyNAMLA-405]
806 | 6417 |  | CCCN1/C(=C/C=C2\CCCC(/C=C/C3=[N+](CCCNC(=O)CCCCC4CCSS4)c4ccccc4C3(C)C)=C2N(CCCOC(C)C)C(C)=O)C(C)(C)c2ccccc21.O=C([O-])C(F)(F)F (stereo not shown) [CyNAMLA-274]
806 | 6424 |  | CCCN1/C(=C/C=C2\CCCC(/C=C/C3=[N+](CCCNC(=O)CCCCC4CCSS4)c4ccccc4C3(C)C)=C2N(Cc2ccccc2OCC)C(C)=O)C(C)(C)c2ccccc21.O=C([O-])C(F)(F)F (stereo not shown) [CyNAMLA-103]
